Values belong to the molecule of their own block, whether it stands above or below them.
Assay: Evaluation of solubility in organic solvents (visual observation of complete dissolution)
Format: physicochemical
Method: [Evaluation of Solubility]
The evaluation of the solubility of the synthesized compound was conducted by the following method.
About 2-3 mg of the compound was precisely weighed, and each solvent was added to the compound such that a predetermined concentration of the solute (0.5 wt %, 0.3 wt %, 0.2 wt %, 0.1 wt %, 0.05 wt %, or 0.03 wt %) was reached. The resultant mixture was stirred for 30 minutes at a predetermined temperature, and then it was evaluated by visual appearance observation whether or not the solute (synthesized compound) was completely dissolved in the solvent, which was the result of the evaluation of the solubility. As the solvent, chloroform (boiling point 61° C.), toluene (boiling point 111° C.), xylene (boiling point 144° C.), mesitylene (boiling point 165° C.), chlorobenzene (boiling point 130° C.), para-chlorotoluene (boiling point 162° C.), and ortho-dichlorobenzene (boiling point 181° C.) were used.

[1] = chloroform, 25° C. (room temperature)
[2] = 1-methylnaphthalene, 25° C. (room temperature)

solubility (solute concentration completely dissolved) (chlorobenzene, 100° C.): < 0.03 wt %
solubility (solute concentration completely dissolved) (mesitylene, 100° C.): < 0.03 wt %
solubility (solute concentration completely dissolved) (mesitylene, 130° C.): < 0.3 wt %
solubility (solute concentration completely dissolved) (ortho-dichlorobenzene, 100° C.): < 0.03 wt %
solubility (solute concentration completely dissolved) (toluene, 100° C.): < 0.03 wt %
Compound: FC(F)(F)Sc1ccc(-c2ccc(-c3c4c(c(-c5ccc(-c6ccc(SC(F)(F)F)cc6)s5)c5nsnc35)N=S=N4)s2)cc1 [Compound (RC5), 4,8-bis[5-(4-((trifluoromethyl)thio)phenyl)thiophene-2-yl]benzo[1,2-c:4,5-c′]bis[1,2,5]thiadiazole, reference compound]

solubility (solute concentration completely dissolved) (1-methylnaphthalene, 80° C.): ≥ 0.3 wt %
solubility (solute concentration completely dissolved) (chlorobenzene, 100° C.): ≥ 0.3 wt %
solubility (solute concentration completely dissolved) (chloroform, 60° C.): ≥ 0.2 wt %
solubility (solute concentration completely dissolved) (ortho-dichlorobenzene, 80° C.): ≥ 0.3 wt %
Compound: CCCCCCCCCCCCCCc1cc(-c2ccc(-c3c4c(c(-c5ccc(-c6ccc(C#N)c(CCCCCCCCCCCCCC)c6)s5)c5nsnc35)N=S=N4)s2)ccc1C#N [Compound (C18), 4,8-bis[5-(4-cyano-3-tetradecylphenyl)thiophene-2-yl]benzo[1,2-c:4,5-c′]bis[1,2,5]thiadiazole]

solubility (solute concentration completely dissolved) (chlorobenzene, 25° C.): ≥ 0.03 wt %
solubility (solute concentration completely dissolved) (chloroform, 60° C.): ≥ 0.05 wt %
solubility (solute concentration completely dissolved) (chloroform, 80° C.): ≥ 0.2 wt %
solubility (solute concentration completely dissolved) (ortho-dichlorobenzene, 25° C.): ≥ 0.03 wt %
solubility (solute concentration completely dissolved) (para-chlorotoluene, 100° C.): ≥ 0.3 wt %
Compound: CCCCCCc1cc(-c2ccc(-c3c4c(c(-c5ccc(-c6ccc(C#N)c(CCCCCC)c6)s5)c5nsnc35)N=S=N4)s2)ccc1C#N [Compound (C8), 4,8-bis[5-(4-cyano-3-hexylphenyl)thiophene-2-yl]benzo[1,2-c:4,5-c′]bis[1,2,5]thiadiazole]

solubility (solute concentration completely dissolved) (chlorobenzene, 100° C.): < 0.03 wt %
solubility (solute concentration completely dissolved) (mesitylene, 100° C.): < 0.03 wt %
solubility (solute concentration completely dissolved) (mesitylene, 130° C.): < 0.3 wt %
solubility (solute concentration completely dissolved) (ortho-dichlorobenzene, 100° C.): < 0.03 wt %
solubility (solute concentration completely dissolved) (toluene, 100° C.): < 0.03 wt %
Compound: FC(F)(F)c1ccc(-c2ccc(-c3c4c(c(-c5ccc(-c6ccc(C(F)(F)F)cc6)s5)c5nsnc35)N=S=N4)s2)cc1 [Compound (RC2), 4,8-bis[5-(4-(trifluoromethyl)phenyl)thiophene-2-yl]benzo[1,2-c:4,5-c′]bis[1,2,5]thiadiazole, reference compound]

solubility (solute concentration completely dissolved) (chlorobenzene, 80° C.): ≥ 0.3 wt %
solubility (solute concentration completely dissolved) [1]: ≥ 0.1 wt %
solubility (solute concentration completely dissolved) (chloroform, 60° C.): ≥ 0.2 wt %
solubility (solute concentration completely dissolved) (ortho-dichlorobenzene, 60° C.): ≥ 0.3 wt %
solubility (solute concentration completely dissolved) (para-chlorotoluene, 100° C.): ≥ 0.3 wt %
Compound: CCCCCCCCc1cc(-c2ccc(-c3c4c(c(-c5ccc(-c6ccc(C#N)c(CCCCCCCC)c6)s5)c5nsnc35)N=S=N4)s2)ccc1C#N [Compound (C14), 4,8-bis[5-(4-cyano-3-octylphenyl)thiophene-2-yl]benzo[1,2-c:4,5-c′]bis[1,2,5]thiadiazole]

solubility (solute concentration completely dissolved) (1-methylnaphthalene, 60° C.): ≥ 0.3 wt %
solubility (solute concentration completely dissolved) (chloroform, 60° C.): ≥ 0.1 wt %
solubility (solute concentration completely dissolved) (mesitylene, 60° C.): ≥ 0.3 wt %
solubility (solute concentration completely dissolved) (ortho-dichlorobenzene, 60° C.): ≥ 0.3 wt %
solubility (solute concentration completely dissolved) (toluene, 60° C.): ≥ 0.3 wt %
Compound: CCCCCCCCCCCCc1cc(-c2ccc(-c3c4c(c(-c5ccc(-c6ccc(C(F)(F)F)c(CCCCCCCCCCCC)c6)s5)c5nsnc35)N=S=N4)s2)ccc1C(F)(F)F [Compound (C27), 4,8-bis[5-(3-dodecyl-4-(trifluoromethyl)phenyl)thiophene-2-yl]benzo[1,2-c:4,5-c′]bis[1,2,5]thiadiazole]

solubility (solute concentration completely dissolved) (chlorobenzene, 25° C.): ≥ 0.1 wt %
solubility (solute concentration completely dissolved) (chlorobenzene, 60° C.): ≥ 0.5 wt %
solubility (solute concentration completely dissolved) (mesitylene, 60° C.): ≥ 0.1 wt %
solubility (solute concentration completely dissolved) (mesitylene, 80° C.): ≥ 0.5 wt %
solubility (solute concentration completely dissolved) (toluene, 60° C.): ≥ 0.1 wt %
solubility (solute concentration completely dissolved) (toluene, 100° C.): ≥ 0.5 wt %
Compound: CCCCCCc1ccc(-c2ccc(-c3c4c(c(-c5ccc(-c6ccc(CCCCCC)c(C#N)c6)s5)c5nsnc35)N=S=N4)s2)cc1C#N [Compound (C7), 4,8-bis[5-(3-cyano-4-hexylphenyl)thiophene-2-yl]benzo[1,2-c:4,5-c′]bis[1,2,5]thiadiazole]

solubility (solute concentration completely dissolved) (chlorobenzene, 25° C.): ≥ 0.03 wt %
solubility (solute concentration completely dissolved) (mesitylene, 25° C.): ≥ 0.03 wt %
solubility (solute concentration completely dissolved) (mesitylene, 60° C.): ≥ 0.1 wt %
solubility (solute concentration completely dissolved) (mesitylene, 80° C.): ≥ 0.5 wt %
solubility (solute concentration completely dissolved) (ortho-dichlorobenzene, 25° C.): ≥ 0.03 wt %
solubility (solute concentration completely dissolved) (toluene, 25° C.): ≥ 0.03 wt %
solubility (solute concentration completely dissolved) (toluene, 60° C.): ≥ 0.1 wt %
solubility (solute concentration completely dissolved) (toluene, 80° C.): ≥ 0.5 wt %
Compound: CCCCCCc1ccc(-c2ccc(-c3c4c(c(-c5ccc(-c6ccc(CCCCCC)c(C(F)(F)F)c6)s5)c5nsnc35)N=S=N4)s2)cc1C(F)(F)F [Compound (C9), 4,8-bis[5-(4-hexyl-3-(trifluoromethyl)phenyl)thiophene-2-yl]benzo[1,2-c:4,5-c′]bis[1,2,5]thiadiazole]

solubility (solute concentration completely dissolved) (chlorobenzene, 100° C.): < 0.03 wt %
solubility (solute concentration completely dissolved) (mesitylene, 100° C.): < 0.03 wt %
solubility (solute concentration completely dissolved) (ortho-dichlorobenzene, 100° C.): < 0.03 wt %
solubility (solute concentration completely dissolved) (toluene, 100° C.): < 0.03 wt %
Compound: FC(F)(F)Oc1ccc(-c2ccc(-c3c4c(c(-c5ccc(-c6ccc(OC(F)(F)F)cc6)s5)c5nsnc35)N=S=N4)s2)cc1 [Compound (RC1), 4,8-bis[5-(4-(trifluoromethoxy)phenyl)thiophene-2-yl]benzo[1,2-c:4,5-c′]bis[1,2,5]thiadiazole, reference compound]

solubility (solute concentration completely dissolved) (1-methylnaphthalene, 60° C.): ≥ 0.3 wt %
solubility (solute concentration completely dissolved) (chloroform, 60° C.): ≥ 0.2 wt %
solubility (solute concentration completely dissolved) (mesitylene, 60° C.): ≥ 0.3 wt %
solubility (solute concentration completely dissolved) (ortho-dichlorobenzene, 60° C.): ≥ 0.3 wt %
solubility (solute concentration completely dissolved) (toluene, 60° C.): ≥ 0.3 wt %
Compound: CCCCCCCCc1cc(-c2ccc(-c3c4c(c(-c5ccc(-c6ccc(C(F)(F)F)c(CCCCCCCC)c6)s5)c5nsnc35)N=S=N4)s2)ccc1C(F)(F)F [Compound (C24), 4,8-bis[5-(3-octyl-4-(trifluoromethyl)phenyl)thiophene-2-yl]benzo[1,2-c:4,5-c′]bis[1,2,5]thiadiazole]

solubility (solute concentration completely dissolved) (1-methylnaphthalene, 80° C.): ≥ 0.3 wt %
solubility (solute concentration completely dissolved) (chlorobenzene, 80° C.): ≥ 0.3 wt %
solubility (solute concentration completely dissolved) (chloroform, 60° C.): ≥ 0.2 wt %
solubility (solute concentration completely dissolved) (ortho-dichlorobenzene, 80° C.): ≥ 0.3 wt %
Compound: CCCC(C)CCc1cc(-c2ccc(-c3c4c(c(-c5ccc(-c6ccc(C#N)c(CCC(C)CCC)c6)s5)c5nsnc35)N=S=N4)s2)ccc1C#N (stereo not shown) [Compound (C21), 4,8-bis[5-(4-cyano-3-(3-methylhexyl)phenyl)thiophene-2-yl]benzo[1,2-c:4,5-c′]bis[1,2,5]thiadiazole]

solubility (solute concentration completely dissolved) [2]: ≥ 0.3 wt %
solubility (solute concentration completely dissolved) [1]: ≥ 0.2 wt %
solubility (solute concentration completely dissolved) (mesitylene, 25° C.): ≥ 0.3 wt %
solubility (solute concentration completely dissolved) (ortho-dichlorobenzene, 25° C.): ≥ 0.3 wt %
solubility (solute concentration completely dissolved) (toluene, 25° C.): ≥ 0.3 wt %
Compound: CCCCC(CC)Cc1ccc(-c2ccc(-c3c4c(c(-c5ccc(-c6ccc(CC(CC)CCCC)c(C(F)(F)F)c6)s5)c5nsnc35)N=S=N4)s2)cc1C(F)(F)F (stereo not shown) [Compound (C31)]

solubility (solute concentration completely dissolved) (chlorobenzene, 60° C.): ≥ 0.3 wt %
solubility (solute concentration completely dissolved) [1]: ≥ 0.1 wt %
solubility (solute concentration completely dissolved) (chloroform, 60° C.): ≥ 0.2 wt %
solubility (solute concentration completely dissolved) (ortho-dichlorobenzene, 60° C.): ≥ 0.3 wt %
solubility (solute concentration completely dissolved) (para-chlorotoluene, 80° C.): ≥ 0.3 wt %
Compound: CCCCCCCCCc1cc(-c2ccc(-c3c4c(c(-c5ccc(-c6ccc(C#N)c(CCCCCCCCC)c6)s5)c5nsnc35)N=S=N4)s2)ccc1C#N [Compound (C15), 4,8-bis[5-(4-cyano-3-nonylphenyl)thiophene-2-yl]benzo[1,2-c:4,5-c′]bis[1,2,5]thiadiazole]

solubility (solute concentration completely dissolved) (mesitylene, 80° C.): ≥ 0.1 wt %
solubility (solute concentration completely dissolved) (toluene, 80° C.): ≥ 0.1 wt %
Compound: FC(F)(F)Oc1ccccc1-c1ccc(-c2c3c(c(-c4ccc(-c5ccccc5OC(F)(F)F)s4)c4nsnc24)N=S=N3)s1 [Compound (RR1), 4,8-bis[5-(2-(trifluoromethoxy)phenyl)thiophene-2-yl]benzo[1,2-c:4,5-c′]bis[1,2,5]thiadiazole, reference compound]

solubility (solute concentration completely dissolved) [2]: ≥ 0.1 wt %
solubility (solute concentration completely dissolved) [1]: ≥ 0.1 wt %
solubility (solute concentration completely dissolved) (ortho-dichlorobenzene, 25° C.): ≥ 0.1 wt %
solubility (solute concentration completely dissolved) (toluene, 25° C.): ≥ 0.3 wt %
Compound: CCCCCCc1cc(-c2ccc(-c3c4c(c(-c5ccc(-c6cc(CCCCCC)c(C#N)c(CCCCCC)c6)s5)c5nsnc35)N=S=N4)s2)cc(CCCCCC)c1C#N [Compound (C22), 4,8-bis[5-(4-cyano-3,5-dihexylphenyl)thiophene-2-yl]benzo[1,2-c:4,5-c′]bis[1,2,5]thiadiazole]

solubility (solute concentration completely dissolved) (chlorobenzene, 25° C.): ≥ 0.1 wt %
solubility (solute concentration completely dissolved) (mesitylene, 25° C.): ≥ 0.1 wt %
solubility (solute concentration completely dissolved) (ortho-dichlorobenzene, 25° C.): ≥ 0.1 wt %
solubility (solute concentration completely dissolved) (toluene, 25° C.): ≥ 0.1 wt %
Compound: FC(F)(F)c1ccccc1-c1ccc(-c2c3c(c(-c4ccc(-c5ccccc5C(F)(F)F)s4)c4nsnc24)N=S=N3)s1 [Compound (RR2), 4,8-bis[5-(2-(trifluoromethyl)phenyl)thiophene-2-yl]benzo[1,2-c:4,5-c′]bis[1,2,5]thiadiazole, reference compound]

Source: US9978954B2, “Benzobis (thiadiazole) derivative, ink comprising same, and organic electronic device comprising same” (UBE INDUSTRIES, LTD., priority 2013, dated 2018)
